The values that follow come from publication PMC8667612 (Journal of medicinal chemistry, 2021).

SMILES strings stand for the structures. Several values for one entry are separate records, joined by “and”; a condition that tells them apart may be missing. Identical values can stand only once.

The target in experiment [1] is T1, N. fowleri CYP51 (Naegleria fowleri, UniProt A0A6A5BCR7, E4K/I5A/S2A, form not given). Particulars: read-out: IC50 (1 h reaction).
Experiment [2] has as its target T1, N. fowleri CYP51. Type of experiment: biochemical. To be noted: 0.5 μM P450, 60 s at 37 °C, sterol 3–50 μM.

By IC50 is commonly meant the concentration needed to halve the response being measured. As to `C[C@@H](c1nc(-c2ccc(C#N)cc2)cs1)[C@](O)(Cn1cncn1)c1cc(F)ccc1F` [isavuconazole, reference compound], the IC50 at N. fowleri CYP51 [1] stood at 0.96 µM.

Take `O=C(N[C@@H](Cn1ccnc1)c1ccc(-c2ccc(F)cc2)cc1F)c1ccc(-c2nnc(-c3ccccc3)o2)cc1` [VFV, (R)-N-(1-(3,4’-difluoro-[1,1’-biphenyl]-4-yl)-2-(1H-imidazol-1-yl)-ethyl)-4-(5-phenyl-1,3,4-oxadiazol-2-yl)benzamide]: the IC50 at N. fowleri CYP51 [1] turned out to be 0.68 µM.

By Km is commonly meant the concentration of substrate that gives half-maximal velocity. As to `CC(C)=CCC[C@@H](C)[C@H]1CC[C@@]2(C)C3=C(CC[C@]12C)[C@@]1(C)CC[C@H](O)C(C)(C)[C@@H]1CC3` [lanosterol], on N. fowleri CYP51 [2], the Km is 48 ± 10 µM.

Take `O=C(N[C@@H](Cn1ccnc1)c1ccc(-c2ccc(F)cc2)cc1Cl)c1ccc(-c2nnc(-c3ccccc3)o2)cc1` [VFV-Cl, (R)-N-(1-(3-chloro-4’-fluoro-[1,1’-biphenyl]-4-yl)-2-(1H-imidazol-1-yl)ethyl)-4-(5-phenyl-1,3,4-oxadiazol-2-yl)benzamide]: the IC50 on N. fowleri CYP51 [1] was 5.9 µM and 5.94 µM.

For the compound `C=C(CC[C@@H](C)[C@H]1CC[C@@]2(C)C3=C(CC[C@]12C)[C@@]1(C)CC[C@H](O)[C@@H](C)[C@@H]1CC3)C(C)C` [obtusifoliol], the Km on N. fowleri CYP51 [2] came out at 8 ± 1 µM.
